The results in this text go back to patent US20250034168A1, “NITROGEN-CONTAINING HETEROCYCLIC DERIVATIVE PARP INHIBITOR AND USE THEREOF” (XIZANG HAISCO PHARMACEUTICAL CO., LTD., priority 2021, published 2025).

The target of one test is PARP-1 enzyme (Homo sapiens (Human), UniProt P09874). Briefly: PARP-1 enzyme activity test. Type of test: biochemical. The method, then:
PARP-1 chemical […] detection kit was purchased from BPS Bioscience. The histone solution in the kit was diluted 5× with 1×PBS, and 25 μL of the diluted histone solution was added to a microwell plate and incubated overnight at 4° C. After the incubation, the plate was washed three times with PBST (0.05% Tween-20). 100 μL of the blocking solution was added to the microwell plate and incubated at 25° C. for 90 minutes. After the incubation, the plate was washed three times with PBST. 2.5 μL of compounds at different concentrations diluted in test buffer and 12.5 μL of substrate mixed solution (1.25 μL 10×PARP test buffer; 1.25 μL 10×PARP test mixed solution; 2.5 μL Activated DNA, 7.5 μL double-distilled water) were added to the microwell plate. The PARP-1 enzyme was diluted to 2 ng/μL, 10 μL of the diluent was added to the microwell plate, and the reaction system was incubated at 25° C. for 60 minutes.
After the incubation, the plate was washed three times with PBST. Streptavidin-HRP was diluted 50× with a blocking solution, and 25 μL of the diluent was added to the microwell plate and incubated at 25° C. for 30 minutes. After the incubation, the plate was washed three times with PBST. ELISA ECL substrate A and substrate B were mixed at a ratio of 1:1 (v/v), 50 μL of the mixture was added to the microwell plate, and the chemiluminescence value was read.
The inhibition rate was calculated according to formula 1, where RLUsample was the readout of the compound well, RLUmax was the readout of the solvent control well, and RLUmin was the readout of the control well without the PARP-1 enzyme. Curve fitting was performed by four parameters (log(inhibitor) vs. response—Variable slope) using GraphPad Prism software, and the IC50 value was calculated.

The test system of a further test is MDA-MB-436 cells. Briefly: MDA-MB-436 cell activity test. Conditions: Homo sapiens; for IC50: MDA-MB-436, 168 h, 7 days incubation, CellTiter-Glo; for inhibition at 10 µM: MDA-MB-436 cells, read-out: Max inh. % 10 μM. The format is cell-based. As for the experimental part: Breast tumor cells MDA-MB-436 were purchased from ATCC, the culture medium was Leibovitz's L-15+10% FBS, and the cells were cultured in a CO2-free incubator at 37° C. On day 1, the cells in the exponential growth phase were collected, and the cell suspension was adjusted to 4000 cells/135 μL with the culture medium. 135 μL of the cell suspension was added to each well of a 96-well cell culture plate and incubated overnight. On day 2, compounds at different concentrations were added, and the plate was placed in the incubator and incubated for 7 days. After the incubation was completed, according to operation instructions for a CellTiter-Glo kit (Promega, G7573), 75 μL of CTG solution, which was already pre-melted and equilibrated to room temperature, was added to each well, and the mixture was uniformly mixed for 2 min using a microplate shaker. The plate was placed at room temperature for 10 min, and then […] were measured using an Envision2104 plate reader (PerkinElmer). The inhibition rate was calculated using formula (1), where RLUcompound was the readout of the drug treated group, RLUcontrol was the average value of the vehicle control group, and RLUblank was the average value of the cell-free well. The IC50 value was calculated using GraphPad Prism software.
For orientation: In ATP-based viability assays light output follows the ATP content of the culture.

Chain of PARP-1 enzyme (P09874 whole entry): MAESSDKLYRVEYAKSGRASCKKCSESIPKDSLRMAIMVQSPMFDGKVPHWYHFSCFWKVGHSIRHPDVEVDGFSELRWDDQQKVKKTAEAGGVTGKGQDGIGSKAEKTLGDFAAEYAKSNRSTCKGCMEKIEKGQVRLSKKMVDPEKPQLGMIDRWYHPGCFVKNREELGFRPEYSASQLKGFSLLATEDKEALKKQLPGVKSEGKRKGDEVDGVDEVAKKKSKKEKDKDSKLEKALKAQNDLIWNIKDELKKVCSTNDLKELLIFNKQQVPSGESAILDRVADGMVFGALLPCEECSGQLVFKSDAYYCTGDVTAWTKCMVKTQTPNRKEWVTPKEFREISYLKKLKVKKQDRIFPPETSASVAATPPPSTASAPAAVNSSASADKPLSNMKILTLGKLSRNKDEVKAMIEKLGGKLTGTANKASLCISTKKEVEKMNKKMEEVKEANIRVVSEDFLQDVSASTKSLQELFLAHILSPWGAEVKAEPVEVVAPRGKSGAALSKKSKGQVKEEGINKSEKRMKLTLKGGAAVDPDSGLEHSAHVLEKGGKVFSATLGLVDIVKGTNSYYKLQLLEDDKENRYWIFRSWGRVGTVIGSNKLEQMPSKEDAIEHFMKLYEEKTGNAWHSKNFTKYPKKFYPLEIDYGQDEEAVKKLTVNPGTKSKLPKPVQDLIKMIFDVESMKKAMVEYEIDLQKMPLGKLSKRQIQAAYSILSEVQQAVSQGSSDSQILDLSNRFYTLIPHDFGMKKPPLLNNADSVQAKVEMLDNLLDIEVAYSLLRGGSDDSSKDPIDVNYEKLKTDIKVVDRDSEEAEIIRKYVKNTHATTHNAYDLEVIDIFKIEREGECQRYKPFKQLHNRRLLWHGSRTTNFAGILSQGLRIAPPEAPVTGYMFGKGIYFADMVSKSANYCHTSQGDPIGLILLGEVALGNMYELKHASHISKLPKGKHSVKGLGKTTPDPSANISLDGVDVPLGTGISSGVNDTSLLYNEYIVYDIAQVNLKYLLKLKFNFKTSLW

By IC50 is commonly meant the midpoint of a concentration-inhibition curve. Low readings indicate greater potency in that assay, high ones weaker potency in that assay. In turn, `CCc1cc2ncc(CN3CC=C(c4cn5cc(C)nc5cn4)CC3)cc2[nH]c1=O` [Compound 27, 3-ethyl-7-((4-(2-methylimidazo[1,2-a]pyrazin-6-yl)-3,6-dihydropyridin-1(2H)-yl)methyl)-1,5-naphthyridin-2(1H)-one] came in with an IC50 against PARP-1 enzyme of 0.41 nM.
`CCc1cc2ncc(CN3CC=C(c4cn5cc(C(F)(F)F)nc5cn4)CC3)cc2[nH]c1=O` [Compound 33, 3-ethyl-7-((4-(2-(trifluoromethyl)imidazo[1,2-a]pyrazin-6-yl)-3,6-dihydropyridin-1(2H)-yl)methyl)-1,5-naphthyridin-2(1H)-one] came in with an IC50 at PARP-1 enzyme of 0.71 nM. Besides, in the test with MDA-MB-436 cells, the IC50 is 1.9 nM and the inhibition at 10 µM is 77.6%.
At PARP-1 enzyme, `CCc1cc2ncc(CN3CC4(C3)CN(c3ccc(C(=O)NC)nc3)C4)cc2[nH]c1=O` [Compound 8, 5-(6-((7-ethyl-6-oxo-5,6-dihydro-1,5-naphthyridin-3-yl)methyl)-2,6-diazaspiro[3.3]heptan-2-yl)-N-methylpicolinamide] returned an IC50 of 0.78 nM.
Consider `CCc1cc2ncc(CN3CC(Nc4ccc(C(=O)NC)nc4)C3)cc2[nH]c1=O` [Compound 6, 5-((1-((7-ethyl-6-oxo-5,6-dihydro-1,5-naphthyridin-3-yl)methyl)azetidin-3-yl)amino)-N-methylpicolinamide], for which, on PARP-1 enzyme, it took 0.51 nM to reach half-maximal inhibition (IC50).
On the same count and under the same terms, next, `CCc1cc2ncc(CN3CC[C@@H](Nc4ccc(C(=O)NC)nc4)C3)cc2[nH]c1=O` [Compound 19, (R)-5-((1-((7-ethyl-6-oxo-5,6-dihydro-1,5-naphthyridin-3-yl)methyl)pyrrolidin-3-yl)amino)-N-methylpicolinamide]: 0.36 nM; `CCc1cc2ncc(CN3CC4CN(c5ccc(C(=O)NC)nc5)CC4C3)cc2[nH]c1=O` (stereo not drawn) [Compound 1, 5-(5-((7-ethyl-6-oxo-5,6-dihydro-1,5-naphthyridin-3-yl)methyl)hexahydropyrrolo [3,4-c]pyrrol-2(1H)-yl)-N-methylpicolinamide]: 0.8 nM.
`CCc1cc2ncc(CN3CC=C(c4ccc(C(=O)Nc5cnn(C)c5)nc4)CC3)cc2[nH]c1=O` [Compound 20, 1′-((7-ethyl-6-oxo-5,6-dihydro-1,5-naphthyridin-3-yl)methyl)-N-(1-methyl-1H-pyrazol-4-yl)-1′,2′,3′,6′-tetrahydro-[3,4′-bipyridine]-6-carboxamide] registered a concentration for half-maximal inhibition (IC50) at PARP-1 enzyme of 0.26 nM. Also, in the test on MDA-MB-436 cells, it took 0.7 nM to reach half-maximal inhibition (IC50) and the inhibition at 10 µM is 91.8%.
The matching figures for `CCc1cc2ncc(CN3CC=C(c4ccc(NC(=O)c5cnn(C)c5)nc4)CC3)cc2[nH]c1=O` [Compound 30, N-(1′-((7-ethyl-6-oxo-5,6-dihydro-1,5-naphthyridin-3-yl)methyl)-1′,2′,3′,6′-tetrahydro-[3,4′-bipyridin]-6-yl)-1-methyl-1H-pyrazole-4-carboxamide]: 0.26 nM, 0.7 nM and 91.8%.
Regarding `CCc1cc2ncc(C=C3CCN(c4ccc(C(=O)NC)nc4)CC3)cc2[nH]c1=O` [Compound 28, 5-(4-((7-ethyl-6-oxo-5,6-dihydro-1,5-naphthyridin-3-yl)methylene)piperidin-1-yl)-N-methylpicolinamide], at PARP-1 enzyme, the IC50 came out at 0.33 nM.
In the case of `CCc1cc2ncc(CC3CCN(c4ccc(C(=O)NC)nc4)CC3)cc2[nH]c1=O` [Compound 29, 5-(4-((7-ethyl-6-oxo-5,6-dihydro-1,5-naphthyridin-3-yl)methyl)piperidin-1-yl)-N-methylpicolinamide], on PARP-1 enzyme, the IC50 worked out at 0.95 nM.
On the same count and under the same terms, next, `CCc1cc2ncc(CN3C4CCC3CN(c3ccc(C(=O)NC)nc3)C4)cc2[nH]c1=O` [Compound 3, 5-(8-((7-ethyl-6-oxo-5,6-dihydro-1,5-naphthyridin-3-yl)methyl)-3,8-diazabicyclo[3.2.1]octan-3-yl)-N-methylpicolinamide]: 1.6 nM.
As for `CCc1cc2ncc(C=C3CCN(c4ccc(C(=O)Nc5cnn(C)c5)nc4)CC3)cc2[nH]c1=O` [Compound 32, 5-(4-((7-ethyl-6-oxo-5,6-dihydro-1,5-naphthyridin-3-yl)methylene)piperidin-1-yl)-N-(1-methyl-1H-pyrazol-4-yl)picolinamide], 0.19 nM corresponded to half-maximal inhibition against PARP-1 enzyme (IC50). In the test on MDA-MB-436 cells, half-maximal inhibition (IC50) required 13.8 nM and the inhibition at 10 µM worked out at 99.1%.
At PARP-1 enzyme, `CCc1cc2ncc(CN3CC=C(c4ccc(C(=O)NC5CC5)nc4)CC3)cc2[nH]c1=O` [Compound 25, N-cyclopropyl-1′-((7-ethyl-6-oxo-5,6-dihydro-1,5-naphthyridin-3-yl)methyl)-1′,2′,3′,6′-tetrahydro-[3,4′-bipyridine]-6-carboxamide] gave an IC50 of 0.36 nM.
With `CCc1cc2ncc(CN3CC=C(c4ccc(C(=O)N[C@@H]5C[C@@H]5F)nc4)CC3)cc2[nH]c1=O` [Compound 26, 1′-((7-ethyl-6-oxo-5,6-dihydro-1,5-naphthyridin-3-yl)methyl)-N-((1R,2S)-2-fluorocyclopropyl)-1′,2′,3′,6′-tetrahydro-[3,4′-bipyridine]-6-carboxamide], half-maximal inhibition on PARP-1 enzyme (IC50) required 0.41 nM. In the test with MDA-MB-436 cells, the IC50 was found to be 1 nM and the inhibition at 10 µM came out at 90.9%.
Consider `CCc1cc2ncc(CN3CC=C(c4ccc(NC(=O)C5CC5)nc4)CC3)cc2[nH]c1=O` [Compound 22, N-(1′-((7-ethyl-6-oxo-5,6-dihydro-1,5-naphthyridin-3-yl)methyl)-1′,2′,3′,6′-tetrahydro-[3,4′-bipyridin]-6-yl)cyclopropanecarboxamide], for which the IC50 against PARP-1 enzyme amounted to 0.31 nM. Moreover, in the test with MDA-MB-436 cells, half-maximal inhibition (IC50) required 2.2 nM and the inhibition at 10 µM turned out to be 89.1%.
